≈ marks a conversion by molar mass, not a printed value.
Assays:
[1] = biological target: E. coli RNA polymerase σ70 holoenzyme (Escherichia coli, UniProt P0A8T7+P0A8V2); assay: Fluorescence-detected RNA polymerase assay, E. coli RNA polymerase; assay type: biochemical; conditions: RiboGreen fluorescence, read-out: IC50 E. coli RNAP
Protocol: Fluorescence-detected RNA polymerase assays with E. coli RNA polymerase were performed by a modification of the procedure of Kuhlman et al., 2004 [Kuhlman, P., Duff, H. & Galant, A. (2004) A fluorescence-based assay for multisubunit DNA-dependent RNA polymerases. Anal. Biochem. 324, 183-190]. Reaction mixtures contained (20 μl): 0-100 nM test compound, 75 nM E. coli RNA polymerase σ^70 holoenzyme, 20 nM 384 bp DNA fragment containing the bacteriophage T4 N25 promoter, 100 μM ATP, 100 μM GTP, 100 μM UTP, 100 μM CTP, 50 mM Tris-HCl, pH 8.0, 100 mM KCl, 10 mM MgCl2, 1 mM DTT, 10 μg/ml bovine serum albumin, and 5.5% glycerol. Reaction components other than DNA and NTPs were pre-incubated for 10 min at 37° C. Reactions were carried out by addition of DNA and incubation for 5 min at 37° C., followed by addition of NTPs and incubation for 60 min at 37° C. DNA was removed by addition of 1 μl 5 mM CaCl2 and 2 U DNaseI (Ambion, Inc.), followed by incubation for 90 min at 37° C. RNA was quantified by addition of 100 μl RiboGreen RNA Quantitation Reagent (Invitrogen, Inc.; 1:500 dilution in Tris-HCl, pH 8.0, 1 mM EDTA), followed by incubation for 10 min at 25° C., followed by measurement of fluorescence intensity [excitation wavelength=485 nm and emission wavelength=535 nm; QuantaMaster QM1 spectrofluorometer (PTI, Inc.)]. […]

[2] = test system: Enterococcus faecalis ATCC 19433; assay: MIC, spiral gradient endpoint assay; assay type: cell-based; conditions: ATCC19433, Mueller-Hinton II agar, 16 h at 37° C., read-out: MIC E. faecalis 19433
From the text: (§1) Minimum inhibitory concentrations (MICs) for Staphylococcus aureus ATCC 12600, Staphylococcus aureus ATCC 13709 MSSA, Staphylococcus aureus BAA-1707 MRSA (MW2), Staphylococcus aureus BAA-1717 MRSA (USA300), Enterococcus faecalis ATCC 19433, Enterococcus faecium ATCC19434, and Escherichia coli D21f2tolC were quantified using spiral gradient endpoint assays, essentially as described [Wallace, A. and Corkill, J. (1989) Application of the spiral plating method to study antimicrobial action. J. Microbiol. Meths. 10, 303-310; Paton, J., Holt, A., and Bywater, M. (1990) Measurement of MICs of antibacterial agents by spiral gradient endpoint compared with conventional dilution methods. Int. J. Exp. Gin. Chemother. 3, 31-38; Schalkowsky S. (1994) Measures of susceptibility from a spiral gradient of drug concentrations. Adv. Exp. Med. Biol. 349, 107-120]. Assays employed exponential-gradient plates containing 150 mm×4 mm Mueller-Hinton II cation-adjusted agar and 0.4-100 μg/ml of test compound. Plates were prepared using an Autoplate 4000 spiral plater (Spiral Biotech, Inc.). Saturated overnight cultures were swabbed radially onto plates, and plates were incubated for 16 h at 37° C. For each culture, the streak length was measured using a clear plastic template (Spiral Biotech, Inc.), the test-compound concentration at the streak endpoint was calculated using the program SGE (Spiral Biotech, Inc.), and the MIC was defined as the calculated test-compound concentration at the streak endpoint.

[3] = test system: Staphylococcus aureus BAA-1707 MRSA (MW2); assay: MIC, spiral gradient endpoint assay; assay type: cell-based; conditions: Mueller-Hinton II agar, 16 h at 37° C., read-out: MIC S. aureus MRSA 1707
From the text: as §1

[4] = test system: Staphylococcus aureus ATCC 12600; assay: MIC, spiral gradient endpoint assay; assay type: cell-based; conditions: ATCC12600, Mueller-Hinton II agar, 16 h at 37° C., read-out: MIC S. aureus 12600
From the text: as §1

[5] = test system: Enterococcus faecium ATCC19434; assay: MIC, spiral gradient endpoint assay; assay type: cell-based; conditions: Mueller-Hinton II agar, 16 h at 37° C., read-out: MIC E. faecium 19434
From the text: as §1

[6] = test system: Staphylococcus aureus BAA-1717 MRSA (USA300); assay: MIC, spiral gradient endpoint assay; assay type: cell-based; conditions: Mueller-Hinton II agar, 16 h at 37° C., read-out: MIC S. aureus MRSA 1717
From the text: as §1

[7] = test system: Staphylococcus aureus ATCC 13709 MSSA; assay: MIC, spiral gradient endpoint assay; assay type: cell-based; conditions: Mueller-Hinton II agar, 16 h at 37° C., read-out: MIC S. aureus 13709
From the text: as §1

[8] = test system: Escherichia coli D21f2tolC; assay: MIC, spiral gradient endpoint assay; assay type: cell-based; conditions: 16 h, read-out: MIC E. coli D21f2tolC
From the text: as §1

[9] = test system: Mycobacterium tuberculosis H37Rv; assay: MIC, microplate Alamar Blue assay; assay type: cell-based
From the text: MICs for Mycobacterium tuberculosis were quantified using microplate Alamar Blue assays as described [Collins, L. & Franzblau, S. (1997) Microplate Alamar Blue assay versus BACTEC 460 system for high-throughput screening of compounds against Mycobacterium tuberculosis and Mycobacterium avium. Antimicrob. Agents Chemother. 41, 1004-1009].

Chain of E. coli RNA polymerase σ70 holoenzyme (P0A8V2 whole entry, the tested form may be a part): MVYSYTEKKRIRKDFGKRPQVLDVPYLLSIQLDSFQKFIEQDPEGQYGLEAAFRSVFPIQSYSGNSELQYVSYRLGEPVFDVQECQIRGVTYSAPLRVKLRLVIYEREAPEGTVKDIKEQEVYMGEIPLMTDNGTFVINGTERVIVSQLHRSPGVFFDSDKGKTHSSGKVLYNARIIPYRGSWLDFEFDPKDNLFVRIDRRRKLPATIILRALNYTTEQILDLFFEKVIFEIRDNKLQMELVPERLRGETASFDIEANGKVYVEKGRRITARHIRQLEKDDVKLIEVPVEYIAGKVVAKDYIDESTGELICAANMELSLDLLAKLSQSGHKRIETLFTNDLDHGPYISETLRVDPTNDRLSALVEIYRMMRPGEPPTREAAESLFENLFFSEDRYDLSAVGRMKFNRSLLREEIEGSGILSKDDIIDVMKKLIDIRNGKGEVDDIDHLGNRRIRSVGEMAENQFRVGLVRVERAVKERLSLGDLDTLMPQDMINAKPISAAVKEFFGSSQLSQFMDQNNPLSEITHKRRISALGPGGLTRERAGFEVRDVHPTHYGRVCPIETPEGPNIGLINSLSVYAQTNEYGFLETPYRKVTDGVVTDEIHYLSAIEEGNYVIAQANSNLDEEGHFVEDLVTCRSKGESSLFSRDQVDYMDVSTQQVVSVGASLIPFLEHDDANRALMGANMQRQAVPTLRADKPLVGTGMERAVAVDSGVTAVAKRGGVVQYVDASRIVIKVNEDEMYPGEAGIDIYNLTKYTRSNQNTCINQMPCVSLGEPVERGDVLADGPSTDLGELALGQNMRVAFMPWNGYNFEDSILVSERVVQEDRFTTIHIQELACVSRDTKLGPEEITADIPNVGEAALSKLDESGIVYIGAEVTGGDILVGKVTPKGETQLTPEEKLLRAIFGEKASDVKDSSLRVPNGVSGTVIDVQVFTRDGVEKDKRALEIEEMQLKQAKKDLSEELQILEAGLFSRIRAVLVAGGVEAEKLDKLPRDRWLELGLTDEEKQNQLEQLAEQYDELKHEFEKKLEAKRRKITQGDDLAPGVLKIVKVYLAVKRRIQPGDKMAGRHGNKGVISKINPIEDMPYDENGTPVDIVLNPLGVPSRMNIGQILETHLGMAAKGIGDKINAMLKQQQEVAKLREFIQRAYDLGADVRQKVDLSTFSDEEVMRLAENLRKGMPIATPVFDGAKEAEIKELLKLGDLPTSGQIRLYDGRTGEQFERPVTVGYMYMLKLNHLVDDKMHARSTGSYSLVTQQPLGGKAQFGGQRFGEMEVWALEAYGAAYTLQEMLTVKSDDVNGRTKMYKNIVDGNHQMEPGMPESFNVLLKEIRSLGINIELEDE
Chain of E. coli RNA polymerase σ70 holoenzyme (P0A8T7 whole entry, the tested form may be a part): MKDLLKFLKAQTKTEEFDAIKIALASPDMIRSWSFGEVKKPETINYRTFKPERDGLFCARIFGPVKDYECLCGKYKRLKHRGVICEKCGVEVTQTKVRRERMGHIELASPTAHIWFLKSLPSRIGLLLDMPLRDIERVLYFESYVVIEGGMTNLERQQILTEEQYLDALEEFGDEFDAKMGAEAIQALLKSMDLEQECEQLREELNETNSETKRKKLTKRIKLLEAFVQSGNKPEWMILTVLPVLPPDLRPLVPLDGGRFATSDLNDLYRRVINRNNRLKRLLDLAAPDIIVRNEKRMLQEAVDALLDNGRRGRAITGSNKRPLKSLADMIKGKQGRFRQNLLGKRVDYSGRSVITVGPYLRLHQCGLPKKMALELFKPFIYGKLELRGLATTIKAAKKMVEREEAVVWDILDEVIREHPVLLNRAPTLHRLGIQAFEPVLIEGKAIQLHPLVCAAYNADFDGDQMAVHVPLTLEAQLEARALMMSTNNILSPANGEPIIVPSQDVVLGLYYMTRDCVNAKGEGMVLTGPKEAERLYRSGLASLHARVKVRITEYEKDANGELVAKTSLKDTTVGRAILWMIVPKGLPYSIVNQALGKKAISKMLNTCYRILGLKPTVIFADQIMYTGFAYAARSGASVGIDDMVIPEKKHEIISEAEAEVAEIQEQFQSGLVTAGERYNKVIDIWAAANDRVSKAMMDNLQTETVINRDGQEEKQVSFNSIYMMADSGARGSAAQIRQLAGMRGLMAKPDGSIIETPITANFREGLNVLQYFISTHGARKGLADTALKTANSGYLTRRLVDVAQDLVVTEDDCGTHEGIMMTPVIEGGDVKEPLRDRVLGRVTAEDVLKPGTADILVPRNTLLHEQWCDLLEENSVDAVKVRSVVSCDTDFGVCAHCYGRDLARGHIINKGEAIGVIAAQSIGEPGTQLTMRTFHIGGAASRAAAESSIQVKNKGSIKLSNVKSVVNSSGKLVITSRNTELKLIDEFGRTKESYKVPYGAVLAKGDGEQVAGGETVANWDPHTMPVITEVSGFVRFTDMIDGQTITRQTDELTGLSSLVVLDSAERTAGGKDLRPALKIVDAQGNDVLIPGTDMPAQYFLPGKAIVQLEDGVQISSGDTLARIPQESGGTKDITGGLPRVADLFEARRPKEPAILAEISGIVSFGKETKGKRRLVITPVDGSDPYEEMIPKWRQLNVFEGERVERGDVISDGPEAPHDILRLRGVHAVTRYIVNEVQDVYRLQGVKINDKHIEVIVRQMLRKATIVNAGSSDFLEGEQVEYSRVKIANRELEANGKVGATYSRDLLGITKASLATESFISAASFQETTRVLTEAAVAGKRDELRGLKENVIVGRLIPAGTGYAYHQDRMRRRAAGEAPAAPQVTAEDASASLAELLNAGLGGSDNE
Chain of E. coli RNA polymerase σ70 holoenzyme (P0A7Z4 whole entry partner, the tested form may be a part): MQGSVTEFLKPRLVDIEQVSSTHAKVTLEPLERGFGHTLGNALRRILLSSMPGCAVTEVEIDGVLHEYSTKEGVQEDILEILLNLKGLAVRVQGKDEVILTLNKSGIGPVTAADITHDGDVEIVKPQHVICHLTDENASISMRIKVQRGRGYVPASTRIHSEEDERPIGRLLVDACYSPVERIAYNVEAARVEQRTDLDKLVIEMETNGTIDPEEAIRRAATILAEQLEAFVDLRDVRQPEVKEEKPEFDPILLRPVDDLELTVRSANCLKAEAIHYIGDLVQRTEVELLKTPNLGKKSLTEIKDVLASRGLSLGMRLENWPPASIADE
Chain of E. coli RNA polymerase σ70 holoenzyme (P0A800 whole entry partner, the tested form may be a part): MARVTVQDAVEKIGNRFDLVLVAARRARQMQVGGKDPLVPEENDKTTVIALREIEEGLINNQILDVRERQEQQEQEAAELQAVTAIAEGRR
Chain of E. coli RNA polymerase σ70 holoenzyme (P00579 whole entry partner, the tested form may be a part): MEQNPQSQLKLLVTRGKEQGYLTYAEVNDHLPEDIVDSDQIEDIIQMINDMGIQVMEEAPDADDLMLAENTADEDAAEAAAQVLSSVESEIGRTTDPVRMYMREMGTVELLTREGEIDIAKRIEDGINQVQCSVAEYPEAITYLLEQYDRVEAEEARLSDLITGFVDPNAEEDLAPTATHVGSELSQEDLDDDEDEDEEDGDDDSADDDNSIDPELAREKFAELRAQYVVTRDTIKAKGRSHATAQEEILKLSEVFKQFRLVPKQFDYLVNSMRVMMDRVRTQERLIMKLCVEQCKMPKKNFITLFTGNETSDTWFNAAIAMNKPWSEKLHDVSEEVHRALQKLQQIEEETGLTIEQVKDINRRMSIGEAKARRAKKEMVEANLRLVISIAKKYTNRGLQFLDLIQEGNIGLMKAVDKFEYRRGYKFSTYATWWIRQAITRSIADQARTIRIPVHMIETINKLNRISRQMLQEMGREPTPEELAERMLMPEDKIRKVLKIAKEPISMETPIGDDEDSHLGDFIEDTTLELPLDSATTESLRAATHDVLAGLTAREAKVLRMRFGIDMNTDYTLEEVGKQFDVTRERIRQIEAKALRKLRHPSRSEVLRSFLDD

Work on CCCCCC1=CC(=O)C(C(=O)CCc2ccccc2)C(=O)O1 (stereo not drawn) [Compound 1, 4-hydroxy-6-pentyl-3-(3-phenylpropanoyl)-2-pyrone] yielded an IC50 [1] of 37 µM, an MIC [2] of 3 µg/mL (≈ 9.54 µM) and an MIC [3] of 5 µg/mL (≈ 15.9 µM). For the same compound, the MIC [4] was 6 µg/mL (≈ 19.1 µM), the MIC [5] was 7 µg/mL (≈ 22.3 µM) and the MIC [6] was 8 µg/mL (≈ 25.4 µM). It also gave an MIC [7] of 9 µg/mL (≈ 28.6 µM), an MIC [8] of 3 µg/mL (≈ 9.54 µM) and an MIC [9] of 9 µg/mL (≈ 28.6 µM).

Source: US8772332B2, “Arylpropionyl-alpha-pyrone antibacterial agents” (priority 2010, dated 2014)
